Assay results published in patent US20240132492A1, “PYRIDOPYRIMIDINE-BASED COMPOUND AND APPLICATION THEREOF” (JINAN UNIVERSITY, priority 2021, published 2024).

Legend:
Type in all cases: cell-based
[1] = biological target: T1, AKT1 (Homo sapiens, UniProt P31749); experiment: Western Blot, degradation of AKT1 protein in H1975-OR cells; conditions: 1000 nM, 24 hours, maximum degradation rate
T1 construct: AKT1, AKT2, and AKT3 proteins in H1975-OR cells; endogenous in cells; host or cells: H1975-OR (osimertinib-resistant H1975)
Description: (§1) Cell line: Non-small cell lung cancer H1975-OR cell line, which is an Osimertinib resistant H1975 cell line, and could be obtained through low dose gradual addition culture. Specific method: H1975 cells were spread in a 10 cm culture dish at a convergence rate of 60-70%, added 50 nM of Osimertinib to the culture medium. After the cell state stabilized, the concentration of Osimertinib was gradually double to 3 μM.
(§2) Conventional Western Blot (immunoblotting) was used for detection, as follows: a certain number of H1975-OR cells were planted on a 96 well plate, adherent cultured in an incubator overnight, and added a certain concentration of compound to act for 24 hours. 1×SDS lysis buffer with protease and phosphatase inhibitors was used to lyse cells. Cell lysates were separated by SDS-PAGE and transferred to PVDF membrane. Then, at room temperature, the PCDF membrane was taken out and immersed in a sealing solution (5% BSA TBS solution containing 0.5% Tween-20) for sealing treatment for 1 hour, and then incubated with a specific primary antibody at 4° C. overnight. The imprints were washed with TBST and incubated with horseradish peroxidase (HRP) labeled secondary antibodies at room temperature for 2 hours. Finally, ECL plus fluorescence detection reagent (Thermo Scientific, Waltham, MA) was used for protein development, and the Amersham Imager 600 system (GE, America) was used for photography. The detection results were processed using ImageJ software to obtain the grayscale value G (Density).

[2] = biological target: T2, AKT2 (Homo sapiens, UniProt P31751); experiment: Western Blot, degradation of AKT2 protein in H1975-OR cells; conditions: 1000 nM, 24 hours, maximum degradation rate
T2 construct: AKT1, AKT2, and AKT3 proteins in H1975-OR cells; endogenous in cells; host or cells: H1975-OR (osimertinib-resistant H1975)
Description: as §1, §2

[3] = system: H1975; experiment: CCK-8 tumor cell proliferation, H1975; conditions: Homo sapiens, NCI-H1975, H1975 cells, 72 hours
Description: (§3) Tumor cells (see Table 2 to Table 5) were inoculated in 96-well plates in complete culture medium (2000-3000 cells/well). After overnight incubation, the compounds with different concentrations (0.000508 μM-10 μM) were used to treat the cells separately for 72 hours. CCK-8 (Cell Counting Kit 8, Dojindo Laboratories, Kumamoto, Japan) experiment was used to evaluate cell proliferation. GraphPad Prism 5.0 software (La Jolla, CA) was used to calculate the half-maximal inhibitory concentration (IC50) values by fitting the concentration response curve. Each IC50 value was represented as an average value±SD.

[4] = system: H1975OR; experiment: CCK-8 tumor cell proliferation, H1975OR; conditions: H1975OR cells (Osimertinib resistant), 72 hours
Description: as §1, §3

[5] = biological target: AKT3 (Homo sapiens, UniProt Q9Y243); experiment: Western Blot, degradation of AKT3 protein in H1975-OR cells; set-up: endogenous in cells; host or cells: H1975-OR (osimertinib-resistant H1975); conditions: 1000 nM, 24 hours, maximum degradation rate
Description: as §1, §2

AKT3, sequence (Q9Y243 whole entry): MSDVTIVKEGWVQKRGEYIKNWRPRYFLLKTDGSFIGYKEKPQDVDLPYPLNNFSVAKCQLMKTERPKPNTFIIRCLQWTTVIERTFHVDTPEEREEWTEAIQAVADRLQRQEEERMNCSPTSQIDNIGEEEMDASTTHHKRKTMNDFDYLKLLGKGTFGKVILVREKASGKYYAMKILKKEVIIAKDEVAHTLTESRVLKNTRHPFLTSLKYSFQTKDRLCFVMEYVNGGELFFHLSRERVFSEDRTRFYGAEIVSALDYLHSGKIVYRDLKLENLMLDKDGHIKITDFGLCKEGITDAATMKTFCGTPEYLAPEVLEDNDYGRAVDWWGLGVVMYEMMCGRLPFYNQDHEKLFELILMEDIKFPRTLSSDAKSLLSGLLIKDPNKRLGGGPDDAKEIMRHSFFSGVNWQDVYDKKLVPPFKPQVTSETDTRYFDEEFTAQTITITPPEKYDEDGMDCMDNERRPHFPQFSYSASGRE
T2 sequence (P31751 whole entry): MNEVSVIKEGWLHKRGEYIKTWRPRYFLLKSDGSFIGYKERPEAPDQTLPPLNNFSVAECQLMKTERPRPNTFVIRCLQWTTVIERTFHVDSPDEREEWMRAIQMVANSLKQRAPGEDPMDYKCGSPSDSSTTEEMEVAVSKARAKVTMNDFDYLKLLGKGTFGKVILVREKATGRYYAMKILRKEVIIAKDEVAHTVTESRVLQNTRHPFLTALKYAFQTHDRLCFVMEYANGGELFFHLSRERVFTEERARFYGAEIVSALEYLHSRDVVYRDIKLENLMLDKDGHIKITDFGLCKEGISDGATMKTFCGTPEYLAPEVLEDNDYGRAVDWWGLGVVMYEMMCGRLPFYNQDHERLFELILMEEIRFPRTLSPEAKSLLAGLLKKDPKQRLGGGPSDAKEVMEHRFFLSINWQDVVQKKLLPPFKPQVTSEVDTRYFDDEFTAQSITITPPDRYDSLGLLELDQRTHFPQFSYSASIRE
T1 sequence (P31749 whole entry): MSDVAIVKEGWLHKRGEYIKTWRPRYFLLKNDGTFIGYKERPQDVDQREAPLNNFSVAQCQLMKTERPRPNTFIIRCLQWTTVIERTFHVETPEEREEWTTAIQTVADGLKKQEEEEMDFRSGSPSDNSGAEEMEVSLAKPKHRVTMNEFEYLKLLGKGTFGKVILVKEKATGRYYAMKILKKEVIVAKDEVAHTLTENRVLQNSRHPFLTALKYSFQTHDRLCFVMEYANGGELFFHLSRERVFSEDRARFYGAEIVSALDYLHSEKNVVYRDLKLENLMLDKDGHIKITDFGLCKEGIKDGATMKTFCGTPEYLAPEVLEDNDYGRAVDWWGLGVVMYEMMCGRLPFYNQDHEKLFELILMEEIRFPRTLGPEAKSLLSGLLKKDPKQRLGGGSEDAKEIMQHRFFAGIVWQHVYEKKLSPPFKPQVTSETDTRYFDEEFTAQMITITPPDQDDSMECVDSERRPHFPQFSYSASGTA

| SMILES | Dmax at 1 µM [1] [%] | Dmax at 1 µM [2] [%] | IC50 [3] [µM] | IC50 [4] [µM] | Dmax at 1 µM [5] [%] |
| --- | --- | --- | --- | --- | --- |
| COc1cc(N2CCN(CCCCCCCCNC(=O)[C@@]34CC5C[C@@](C)(C[C@@](C)(C5)C3)C4)CC2)ccc1Nc1ncc2c(C)cc(=O)n(-c3cccc(NC(=O)C4CC4)c3)c2n1 [ZX-HYT-32] | 0 | 24.3 | 1.02 ± 0.24 | 0.21 ± 0.04 | 45.2 |
| CCc1cccc(-n2c(=O)cc(C)c3cnc(Nc4ccc(N5CCN(CCCCCCCCCCCCNC(=O)CC67CC8CC(CC(C8)C6)C7)CC5)cc4OC)nc32)c1 [ZX-HYT-16, 2-((3R, 5R, 7R)-adamantan-1-yl)-N-(12-(4-(4-(8-(3-ethylphenyl)-5-methyl-7-oxy-7,8-dihydropyridino [2,3-d]pyrimidin-2-yl)amino)-3-methoxyphenyl)piperazin-1-yl) dodecyl) acetamide] | 0 | 31.4 |  |  | 70.3 |
| COc1cc(N2CCN(CCCCCCCCCCCCNC(=O)CC34CC5CC(CC(C5)C3)C4)CC2)ccc1Nc1ncc2c(C)cc(=O)n(-c3cccc(NC4CNC4)c3)c2n1 [ZX-HYT-45, 2-((3R, 5R, 7R)-adamantan-1-yl)-N-(12-(4-(4-((8-(3-(azacyclobutane-3-ylamino)phenyl)-5-methyl-7-oxy-7,8-dihydropyridino [2,3-d]pyrimidin-2-yl)amino)-3-methoxyphenyl)piperazin-1-yl)dodecyl) acetamide] | 32.8 | 17.6 | 2.4 ± 0.226 | 2.35 ± 0.11 | 29.1 |
| COc1cc(N2CCN(CCCCCCCCNC(=O)CC(C)(C)C)CC2)ccc1Nc1ncc2c(C)cc(=O)n(-c3cccc(NC(=O)C4CC4)c3)c2n1 [ZX-HYT-33] | 0 | 43.7 | 2.31 ± 0.52 | 0.44 ± 0.14 | 55.3 |
| COc1cc(OCCCCCCCCCCCCNC(=O)CC23CC4CC(CC(C4)C2)C3)ccc1Nc1ncc2c(C)cc(=O)n(-c3cccc(NC(=O)C4CC4)c3)c2n1 [ZX-HYT-28, N-(3-(2-((4-((12-(2-((3R, 5R, 7R)-adamantan-1-yl)acetylamino)dodecyl)oxy)-2-methoxyphenyl)amino)-5-methyl-7-oxypyrimidino [2,3-d]pyrimidin-8 (7H)-yl)phenyl) cyclopropane formamide] |  |  | 0.645 | 0.177 |  |
| CCCCCCCCN1CCN(c2ccc(Nc3ncc4c(C)cc(=O)n(-c5cccc(NC(=O)C6CC6)c5)c4n3)c(OC)c2)CC1 [ZX-HYT-30, N-(3-(2-((2-methoxy-4-(4-octylpiperazin-1-yl)phenyl)amino)-5-methyl-7-oxypyridino [2,3-d]pyrimidin-8 (7H)-yl)phenyl) cyclopropane formamide] | 40.5 | 37.1 | > 10 | 8.84 ± 2.17 | 51.9 |
| COc1cc(N2CCN(CCCCCCCCCCCCNC(=O)CC34CC5CC(CC(C5)C3)C4)CC2)ccc1Nc1ncc2c(C)cc(=O)n(-c3cccc(OCC4CC4)c3)c2n1 [ZX-HYT-40, 2-((3R, 5R, 7R)-adamantan-1-yl)-N-(12-(4-(4-((8-(3-(cyclopropylmethoxy)phenyl)-5-methyl-7-oxo-) 7,8-dihydropyridino [2,3-d]pyrimidin-2-yl)amino)-3-methoxyphenyl)piperazin-1-yl) dodecyl) acetamide] | 32 | 30.7 | 0.0864 ± 0.0296 | 0.0609 ± 0.014 | 53 |
| COc1cc(N2CCN(CCCCCCCCNC(=O)C3C[C@H]4C=C[C@@H]3C4)CC2)ccc1Nc1ncc2c(C)cc(=O)n(-c3cccc(NC(=O)C4CC4)c3)c2n1 (some centres unmarked) [ZX-HYT-60] | 13 | 0 | 0.135 ± 0.0948 | 0.107 ± 0.0194 | 18.9 |
| COc1cc(N2CCN(CCCCCCCCNC(=O)C3CC3)CC2)ccc1Nc1ncc2c(C)cc(=O)n(-c3cccc(NC(=O)C4CC4)c3)c2n1 [ZX-HYT-62] | 28.4 | 15.1 | 0.0551 ± 0.0232 | 0.0487 ± 0.004 | 18.8 |
| COc1cc(N2CCN(CCCCCCCCCCCCNC(=O)CC34CC5CC(CC(C5)C3)C4)CC2)ccc1Nc1ncc2c(C)cc(=O)n(-c3ccccc3)c2n1 [ZX-HYT-36, 2-((3R, 5R, 7R)-adamantan-1-yl)-N-(12-(4-(3-methoxy-4-((5-methyl-7-oxy-8-phenyl-7,8))-dihydropyridino [2,3-d]pyrimidin-2-yl)amino)phenyl) piperazin-1-yl) dodecyl) acetamide] | 0 | 0 | 0.219 ± 0.0782 | 0.107 ± 0.008 | 12.3 |
| COc1cc(OCCOCCCCCCCCCCCCOCCC23CC4CC(CC(C4)C2)C3)ccc1Nc1ncc2c(C)cc(=O)n(-c3cccc(NC(=O)C4CC4)c3)c2n1 [ZX-HYT-38, N-(3-(2-((4-(2-((12-(2-((3R, 5R, 7R)-adamantan-1-yl)ethoxy)dodecyl)oxy)ethoxy)-2-methoxyphenyl)amino)-5-methyl-7-oxypyridino [2,3-d]pyrimidin-8 (7H)-yl)phenyl) cyclopropane formamide] | 0 | 0 |  |  | 16.2 |
| COc1cc(N2CCN(CCCCCCCCCCCCNC(=O)CC34CC5CC(CC(C5)C3)C4)CC2)ccc1Nc1ncc2c(C)cc(=O)n([C@H]3CCC[C@@H](NC(=O)C4CC4)C3)c2n1 [ZX-HYT-23] | 0 | 0 |  |  | 41.4 |
| COc1cc(N2CCN(CCCCCCCCCCCCNC(=O)CC34CC5CC(CC(C5)C3)C4)CC2)ccc1Nc1ncc2c(C)cc(=O)n([C@H]3CCC[C@@H](C(=O)NC4CC4)C3)c2n1 [ZX-HYT-21, (1R, 3S)-3-(2-(4-(4-(12-(2-(((3R, 5R, 7R)-adamantan-1-yl)acetylamino)dodecyl)piperazin-1-yl)-2-methoxyphenyl)amino)-5-methyl-7-oxypyridino [2,3-d]pyrimidin-8 (7H)-yl)-N-cyclopropylcyclohexane-1-carboxylamide] | 0 | 0 |  |  | 6.8 |
| CCC(=O)Nc1cccc(-n2c(=O)cc(C)c3cnc(Nc4ccc(N5CCN(CCCCCCCCNC(=O)CC67CC8CC(CC(C8)C6)C7)CC5)cc4OC)nc32)c1 [ZX-HYT-49, N-(3-(2-((4-(4-(8-(2-((3R, 5R, 7R)-adamantan-1-yl)acetylamino)octyl)piperazin-1-yl)-2-methoxyphenyl))amino)-5-methyl-7-oxypyridino [2,3-d]pyrimidin-8 (7H)-yl) phenyl) propionamide] | 0 | 26.1 | 0.0958 ± 0.0126 | 0.0346 | 61.6 |
| COc1cc(N2CCN(CCCCCCCCCCCCNC(=O)CC34CC5CC(CC(C5)C3)C4)CC2)ccc1Nc1ncc2c(C)cc(=O)n(-c3cccc(NC4CCN(C)CC4)c3)c2n1 [ZX-HYT-18, 2-((3R, 5R, 7R)-adamantan-1-yl)-N-(12-(4-(3-methoxy-4-(5-methyl-8-(3-(1-methylpipe-4-yl)amino)phenyl)-7-oxo-7,8-dihydropyridino [2,3-d]pyrimidin-2-yl)amino)phenyl) piperazin-1-yl) dodecyl) acetamide] | 0 | 0 |  |  | 30.6 |
